Here are results for 5 compounds from US20120046224A1, “TREATMENT OF DIABETES AND METABOLIC SYNDROME” (NORDIC BIOSCIENCE A/S, priority 2009, published 2012).

Data set [1] can be described thus: Body weight and whole body composition (MR scanning) in DIO rats. The data set is classed as in vivo, rat. Conditions: once daily oral, Calcitonin 2 mg/kg/day with 5-CNAC 150 mg/kg/day, or 5-CNAC 150 mg/kg/day alone. Here is the method:
(§1) A total of 48 selectively bred male DIO rats were used. At the beginning of the experiment, the animals had reached an age of 35 weeks, out of which 31 weeks were on high-fat diet.
(§2) At day −7, 21 and 42 fasted serum and urine samples were collected and whole body tissue composition was evaluated by MR scanning. At day 42, an oral glucose tolerance test (OGTT) was performed to evaluate glucose homeostasis in the rats. At day −1 the animals were stratified according to weight and whole body fat mass (assessed by a 4-in-1 EchoMRI scanner) to the different treatment groups. The groups were randomized in three teams by body weight.
First day of dosing was day 0. Animals were dosed per oral 5 ml/kg. The compound solution was administered once daily at 7:00 AM-2:00 PM during the whole study (0-42 days) per oral gavage using a gastric tube connected to a 5 ml syringe (luer lock™. Becton).
To assess the distribution of the gained weight during the treatment program the animals were subjected to MR analysis after termination. Two parameters were investigated: 1) change in fatty mass and, 2) change in total water content.

For data set [2], the system named is DIO rats. Briefly: Oral glucose tolerance test (OGTT) in DIO rats. It counts as in vivo, rat. Here is the method: as §1, §2
First day of dosing was day 0. Animals were dosed per oral 5 ml/kg.
In order to test the glucose handling in different treatment groups, an oral glucose tolerance test (OGTT) was performed.

The conditions of data set [3]: rats fed a high fat diet, delivered by osmotic pump; cited from earlier work.
For data set [4], the system named is rat hepatocytes. To be noted: cited from earlier work.
The conditions of data set [5]: cited from earlier work.
The conditions of data set [6]: cited from earlier work. This is another data set of the same source.
The conditions of data set [7]: 100 U by i.v. infusion; cited from earlier work.
The conditions of data set [8]: cited from earlier work. This is another data set of the same source.
The conditions of data set [9]: Paget's disease of the bone patients, injection; cited from earlier work.
For data set [10] the following is noted: healthy test persons, infusion; cited from earlier work.

No end group written: not given here.

With `O=C(O)CCCCCCCNC(=O)c1cc(Cl)ccc1O` [5-CNAC, N-(5-chlorosalicyloyl)-8-aminocaprylic acid], in data set [1], the “change in body weight” value is on record as “Neither the CT treated group nor the 5-CNAC group display any change in their body weight”. Also, in data set [2] (peak 15 minutes after glucose, CT compared to 5-CNAC group), the “plasma insulin response during OGTT” value is “the levels stay in the hyperinsulinaemic state throughout the OGTT”. The “maximum / peak blood glucose level during OGTT” value in data set [2] (reached 15 minutes after OGTT (CT), at 60 minutes (5-CNAC)) came out at 9.8 mM.
As for “amylin (KCNTATCATQRLANFLVHSSNNFGAILSSTNVGSNTY; not fully specified (C-terminus, bridges); cysteine pairing not given here; UniProt P10997 34-70, looked up) [calcitonin family peptide hormone, literature results]”, the weight gain result in [3] is reported as “caused a reduction in weight gain”. Besides, the “effect on rat hepatocytes and other cells” value in [4] was “little effect”. Also, the glucose levels result in data set [5] (fasting animals, parenterally administered) is given as “a rise in glucose levels”. Moreover, the “rise in glucose in oral glucose tolerance test” value in data set [5] (rats, parenterally administered shortly before the test) is “reduced the rise in glucose”. In addition, the plasma glucose entry in data set [6] (in the absence of a meal) is reported as “associated with a rise in plasma glucose in rodents, but not in humans”. The “rise in plasma glucose” value in data set [6] (in the context of a meal, rats, dogs and humans) is recorded as “suppressed a rise in plasma glucose”.
In the case of calcitonin, in [7], the “glycaemia in the course of an OGTT” value is on record as “a persistence of hyperglycaemia” and the insulin secretion entry was “An inhibitory action of calcitonin on insulin secretion was also observed”. In addition, the glycemic recovery result in data set [8] (hypoglycaemic rat, compared to glucagon) was “a greater glycemic recovery than glucagon”.
Turning to “human calcitonin (CGNLSTCMLGTYTQDFNKFHTFPQTAIGVGAP; ends and bridges not checked; cysteine pairing not given here; listed as Homo sapiens)”, the “serum glucose and serum insulin” value in data set [9] was “a moderate immediate rise in serum glucose and a slight decrease in serum insulin”. In data set [10], the “glucose assimilation and insulin output” value is “significant impairment of glucose assimilation and insulin output”.
For the compound “rat calcitonin (CGNLSTCMLGTYTQDLNKFHTFPQTSIGVGAP; ends and bridges not checked; cysteine pairing not given here)”, the “effect on rat hepatocytes and other cells” value in data set [4] is listed as “little effect”. For the same compound, the fasting plasma glucose result in [8] (rats and mice, intravenous bolus injection) is listed as “a lesser effect”.
